Laboratory results taken from patent publication US20230058623A1, “NOVEL HETEROARYL-TRIAZOLE COMPOUNDS AS PESTICIDES” (Bayer Aktiengesellschaft, priority 2019, published 2023).
Where two headings read alike, the source gives them in different places.

What was measured:
Type in all cases: in vivo
[1] = system: adult engorged female ticks (Rhipicephalus microplus); assay: Rhipicephalus (Boophilus) microplus injection test; settings: 168 h, read-out: activity (efficacy: infertile eggs)
In short: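 Five adult engorged female ticks injected into the abdomen with 1 μL compound solution in DMSO, then held in a climate chamber. Fertile egg deposition assessed after 7 days, unclear eggs kept until hatching (about 42 days); efficacy 100% = all eggs infertile, 0% = all fertile.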

[2] = system: Rhipicephalus (Boophilus) microplus larvae (strain Parkhurst, resistant against synthetic pyrethroids); assay: Rhipicephalus (Boophilus) microplus in-vitro contact test, larval cattle tick; settings: read-out: activity (efficacy: larvae dead or moribund)
In short: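 Acetone solutions were coated onto glass tube walls, giving 5 μg/cm^2 at 900 ppm. Once dry, 20–50 pyrethroid-resistant Parkhurst larvae were added per tube and held 48 h at 27 °C and 85% RH. Efficacy was scored by negative geotaxis as the percentage of dead or moribund larvae.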

[3] = system: adult cat fleas (Ctenocephalides felis); assay: Ctenocephalides felis in-vitro contact test, adult cat flea; settings: application rate 5 μg/cm^2 (=500 g/ha), after 48 hours, read-out: activity (efficacy: fleas dead or moribund)
In short: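 Acetone solutions of compound were coated onto inner walls of glass tubes (900 ppm giving 5 μg/cm^2) and dried; 5-10 adult C. felis were then held 48 h at room temperature. Efficacy = % fleas dead or moribund, judged by inability to escape a 45-50° C heating plate within 5 min.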

[4] = system: adult brown dog ticks (Rhipicephalus sanguineus); assay: Rhipicephalus sanguineus in-vitro contact test, adult brown dog ticks; settings: application rate 5 μg/cm^2 (=500 g/ha), after 48 hours, read-out: activity (efficacy: ticks dead or moribund)
In short: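 Acetone solution (900 ppm giving 5 μg/cm²) coated on inner walls of glass tubes; after drying, 5-10 adult ticks added and held at room temperature 48 h. Ticks then placed on 45-50 °C plate ≤5 min; those unable to climb away scored dead/moribund, efficacy as % affected.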

[5] = system: adult unfed cat fleas (Ctenocephalides felis); assay: Ctenocephalides felis oral test; settings: 48 h, read-out: activity (mortality)
Procedure: Ctenocephalides felis—Oral Test
Solvent: dimethyl sulfoxide
To produce a suitable preparation of active compound, 10 mg of active compound are dissolved in 0.5 mL solvent, and the concentrate is diluted with citrated cattle blood to the desired concentration.
Approximately 20 adult unfed cat fleas (Ctenocephalides felis) are placed in a flea chamber whose top and bottom is covered with gauze. A chamber whose bottom is sealed with parafilm, is filled with the blood-compound solution and placed on top of the flea chamber, so that the fleas can suck the blood. The blood chamber is heated to 37° C. whereas the flea chamber is kept at room temperature.
After 2 days mortality in % is determined. 100% means all the fleas have been killed; 0% means none of the fleas have been killed.

[6] = system: green peach aphid (Myzus persicae); assay: Myzus persicae oral test; settings: 120 h, read-out: activity (mortality)
In short: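 Acetone stock (1 pbw compound/100 pbw solvent) diluted in water; mixed with sugar-supplemented IPL41 medium; parafilm-sealed; mixed aphid population sucks through film; mortality % read at 5 d.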

[7] = system: fall armyworm larvae (Spodoptera frugiperda); assay: Spodoptera frugiperda spray test; settings: 168 h, application rate 100 g/ha, after 7 days, maize leaf sections
In short: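 Maize leaf sections sprayed with compound diluted in water with 1000 ppm emulsifier, then infested with larvae once dry. Mortality (%) scored after 7 days; 100% = all caterpillars killed.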

[8] = system: green peach aphid (Myzus persicae); assay: Myzus persicae spray test; settings: foliar, 120 h, read-out: activity (mortality)
In short: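 Chinese cabbage leaf disks infested with all aphid instars were sprayed with compound diluted in water containing emulsifier (1000 ppm). Mortality (%) was scored after 5 days, 100% meaning all aphids killed.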

[9] = system: adult mosquitoes Aedes aegypti strain MONHEIM; assay: Aedes aegypti test (AEDSAE surface treatment & contact assay); settings: surface concentration 20 mg/m^2, exposure 30 minutes, 24 hours after contact, read-out: efficacy (mortality)
Procedure: Aedes aegypti Test (AEDSAE Surface Treatment & Contact Assay)
Solvent: Aceton+2000 ppm rapeseed oil methyl ester (RME)
In order to produce a sufficient, active ingredient containing solution it is necessary to solve the test compound in the solvent-mix (acetone at 2 mg/ml/RME 2000 ppm). This solution is pipetted onto a glazed tile and after evaporation of the acetone, adult mosquitoes of the species Aedes aegypti strain MONHEIM are placed onto the dried surface. The exposure time is 30 minutes.
Mortality in percent (%) is determined 24 hours after contact of the insects to the treated surface. 100% mortality means that all tested insects are dead, whereas 0% means that no insect died.

[10] = system: larvae of the banded cucumber beetle (Diabrotica balteata); assay: Diabrotica balteata spray test; settings: 168 h, application rate 100 g/ha (=32 μg/well), after 7 days, wheat seeds, read-out: activity (efficacy: seedlings grown)
In short: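 Wheat seeds germinated 1 day on agar were sprayed with compound diluted in water with 1000 ppm emulsifier, then infested with 10-20 Diabrotica balteata larvae. Efficacy in % scored after 7 days: 100% = seedlings grown as untreated, uninfected control; 0% = no seedlings grown.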

[11] = system: larvae of the southern green stink bug (Nezara viridula); assay: Nezara viridula spray test; settings: 96 h; for mortality at 100 g/ha: application rate 100 g/ha, after 4 days, barley plants
In short: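 Barley plants sprayed with the active compound in emulsifier-containing water, then infested with stink bug larvae. Mortality scored in % after 4 days, with 100% meaning all insects killed.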

[12] = application rate 4 μg/tick, egg deposition after 7 days
[13] = application rate 1 μg/cm^2 (=100 g/ha), after 48 hours
[14] = application rate 5 μg/cm^2 (=500 g/ha), after 48 hours
[15] = application rate 100 g/ha, after 5 days, Chinese cabbage leaf disks

Row | SMILES | pest or weed control at 0.004 mg [1, 12] [%] | pest or weed control at 1 µg/cm2, 100 g/ha [2, 13] [%] | pest or weed control at 5 µg/cm2, 500 g/ha [2, 14] [%] | pest or weed control at 5 µg/cm2 [3] [%] | pest or weed control at 5 µg/cm2, 500 g/ha [4] [%] | mortality at 100 ppm [5] [%] | mortality at 4 ppm [6] [%] | mortality at 100 g/ha [7] [%] | mortality at 100 g/ha [8, 15] [%] | mortality at 20 mg/m2 [9] [%] | pest or weed control at 32 µg/disc, 100 g/ha [10] [%] | mortality at 100 g/ha [11] [%] | mortality at 100 g/ha ([8]; in Brassica rapa) [%] | pest or weed control at 1 µg/cm2, 100 g/ha ([2]; 48 h) [%] | pest or weed control at 5 µg/cm2, 500 g/ha ([2]; 48 h) [%] | pest or weed control at 0.004 mg [1] [%] | mortality at 500 g/ha ([11]; in Hordeum vulgare, read-out: activity (mortality)) [%]
1 | Cc1nc([C@H](C)NC(=O)c2cc(Cl)cc(C(F)(F)F)c2)n(-c2ccc(C(=O)N3CC[C@@H](F)C3)cn2)n1 [Example I-19] | 100 | 100 | 100 | 100 | 100 | 100 | 90 | 100 |  |  |  |  |  |  |  |  | 
2 | Cc1nc([C@H](C)NC(=O)c2cc(Cl)cc(C(F)(F)F)c2)n(-c2ccc(C(=O)N3CC(F)C3)cn2)n1 [Example I-20] | 100 | 90 | 100 | 100 | 100 | 100 | 100 | 100 | 90 | 80 to 100 |  |  |  |  |  |  | 
3 | Cc1nc([C@H](C)NC(=O)c2cc(Cl)cc(C(F)(F)F)c2)n(-c2ccc(C(=O)N3CCCC3)cn2)n1 [Example I-22] | 100 | 90 | 90 | 90 | 100 | 80 |  | 100 |  |  |  |  |  |  |  |  | 
4 | Cc1nc([C@H](C)NC(=O)c2cc(Cl)cc(C(F)(F)F)c2)n(-c2ccc(C(=O)N3CCC3)cn2)n1 [Example I-23] | 100 | 90 | 90 | 100 | 100 | 90 | 100 | 100 | 90 | 80 to 100 |  |  |  |  |  |  | 
5 | COC1CN(C(=O)c2ccc(-n3nc(C)nc3[C@H](C)NC(=O)c3cc(Cl)cc(C(F)(F)F)c3)nc2)C1 [Example I-24] | 100 | 100 | 100 | 90 | 100 | 80 | 100 | 100 | 100 | 80 to 100 |  |  |  |  |  |  | 
6 | C[C@@H]1CN(C(=O)c2ccc(-n3ncnc3[C@H](C)NC(=O)c3cc(Cl)cc(C(F)(F)F)c3)nc2)CCO1 [Example I-32] | 100 | 100 | 100 | 100 | 100 | 90 | 100 | 100 | 100 |  | 100 |  |  |  |  |  | 
7 | C[C@H](NC(=O)c1cc(Cl)cc(C(F)(F)F)c1)c1ncnn1-c1ccc(C(=O)N2CCOC[C@H]2C)cn1 [Example I-33] | 100 | 100 | 100 |  | 100 | 100 |  | 100 |  |  |  | 90 |  |  |  |  | 
8 | C[C@@H]1CN(C(=O)c2ccc(-n3ncnc3[C@H](C)NC(=O)c3cc(Cl)cc(C(F)(F)F)c3)nc2)C[C@@H](C)O1 [Example I-40] | 100 | 100 | 100 |  | 100 | 90 | 100 |  | 90 | 80 to 100 | 100 |  |  |  |  |  | 
9 | C[C@H](NC(=O)c1cc(Cl)cc(C(F)(F)F)c1)c1ncnn1-c1ccc(C(=O)N2CC3CC(C2)O3)cn1 [Example I-41] | 100 |  |  | 80 | 100 | 100 | 100 |  |  |  | 100 |  | 90 | 100 | 100 |  | 
10 | Cc1nc([C@H](C)NC(=O)c2cc(C(F)(F)F)cc(C(F)(F)F)c2)n(-c2ccc(C(=O)N3CCC[Si](C)(C)C3)cn2)n1 [Example I-93] |  |  |  |  |  | 100 |  |  |  |  |  |  |  | 90 | 90 | 100 | 90
11 | Cc1nc([C@H](C)NC(=O)c2cc(C(F)(F)F)cc(C(F)(F)F)c2)n(-c2ccc(C(=O)N3C[C@H](C)O[C@@H](C)C3)cn2)n1 [Example I-95] | 100 | 100 | 100 | 100 | 100 | 100 |  | 100 |  |  | 100 | 100 |  |  |  |  | 
12 | C[C@@H]1CN(C(=O)c2ccc(-n3ncnc3[C@H](C)NC(=O)c3cc(OC(F)(F)F)cc(C4CC4)c3)nc2)C[C@@H](C)O1 [Example I-116] | 100 | 100 | 100 | 100 | 80 | 100 | 100 |  | 90 |  | 80 |  |  |  |  |  | 
13 | Cc1nc([C@H](C)NC(=O)c2cc(OC(F)(F)F)cc(C3CC3)c2)n(-c2ccc(C(=O)N3C[C@@H](C)O[C@H](C)C3)cn2)n1 [Example I-117] | 100 | 90 | 90 | 100 | 100 | 90 | 100 |  | 90 |  |  |  |  |  |  |  | 
